Residue numbers refer to the chain shown, from its start.
Tests used:
Type in all cases: cell-based
[1] = biological target: T1, GlyR α1 WT (Homo sapiens, UniProt P23415); assay: Whole-cell recording of wild-type GlyR α1 expressed in HEK cells
T1 sequence (P23415 29-457): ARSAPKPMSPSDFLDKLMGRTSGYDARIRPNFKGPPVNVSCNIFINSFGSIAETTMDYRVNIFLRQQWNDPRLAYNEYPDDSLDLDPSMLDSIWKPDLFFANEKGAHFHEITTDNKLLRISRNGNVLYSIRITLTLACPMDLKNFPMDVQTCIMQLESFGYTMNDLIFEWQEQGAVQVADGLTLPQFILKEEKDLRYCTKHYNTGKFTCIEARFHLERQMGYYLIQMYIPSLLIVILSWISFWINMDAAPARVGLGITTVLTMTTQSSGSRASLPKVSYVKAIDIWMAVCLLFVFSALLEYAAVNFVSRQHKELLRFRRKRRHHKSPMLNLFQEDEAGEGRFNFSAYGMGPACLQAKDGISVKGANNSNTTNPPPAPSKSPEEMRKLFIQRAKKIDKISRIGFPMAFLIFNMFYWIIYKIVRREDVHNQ

[2] = biological target: T2, GlyR α1^F100A (Homo sapiens, UniProt P23415, F128A); assay: Whole-cell recording of substituted GlyR in HEK cells
T2 sequence (P23415 29-457 F128A): T1 sequence (P23415 29-457) with F100A

[3] = biological target: T3, GlyR α1^I132A (Homo sapiens, UniProt P23415, I160A); assay: as above
T3 sequence (P23415 29-457 I160A): T1 sequence (P23415 29-457) with I132A

[4] = biological target: T4, GlyR α1^V60A (Homo sapiens, UniProt P23415, V88A); assay: as above
T4 sequence (P23415 29-457 V88A): T1 sequence (P23415 29-457) with V60A

[5] = biological target: T5, GlyR α1^L117A (Homo sapiens, UniProt P23415, L145A); assay: as above
T5 sequence (P23415 29-457 L145A): T1 sequence (P23415 29-457) with L117A

[6] = biological target: T6, GlyR α1^L118A (Homo sapiens, UniProt P23415, L146A); assay: as above
T6 sequence (P23415 29-457 L146A): T1 sequence (P23415 29-457) with L118A

[7] = direct activation without glycine
[8] = read-out: Zn^2+ Inhibition IC50, modulation of EC50 glycine currents
[9] = maximal Zn^2+ response as percentage of maximal glycine response in same cell
[10] = read-out: Zn^2+ Activation EC50, direct activation without glycine

NCC(=O)O [Glycine, glycine]
Glycine Imax [1]: 6.8 ± 0.5 nA | Glycine nH ([1]; Hill slope): 2.7 ± 0.2 | Glycine Imax [2]: 4.5 ± 0.7 nA | Glycine nH ([2]; Hill slope): 1.8 ± 0.2 | Glycine Imax [3]: 6.1 ± 0.7 nA | Glycine nH ([3]; Hill slope): 2.7 ± 0.4 | Glycine Imax [4]: 6.5 ± 1.3 nA | Glycine nH ([4]; Hill slope): 3.5 ± 0.8 | Glycine Imax [5]: 4.4 ± 0.7 nA | Glycine nH ([5]; Hill slope): 1.67 ± 0.1 | Glycine Imax [6]: 6.3 ± 0.7 nA | Glycine nH ([6]; Hill slope): 3.00 ± 0.2

[Zn+2] [Zn^2+]
Zn^2+ Activation EC50 [1, 7]: None | IC50 [1, 8]: 15 ± 2 µM | Zn^2+ Activation nH ([2]; Hill slope): 0.5 ± 0.1 | Zn^2+ Activation Relative efficacy (% Gly Imax) [2, 9]: 7 ± 4 % Gly Imax | EC50 [2, 10]: 9.2 ± 0.6 µM | IC50 [2, 8]: > 1000 µM | Zn^2+ Activation nH ([3]; Hill slope): 1.2 ± 0.1 | Zn^2+ Activation Relative efficacy (% Gly Imax) [3, 9]: 72 ± 5 % Gly Imax | EC50 [3, 10]: 140 ± 30 µM | IC50 [3, 8]: > 1000 µM | Zn^2+ Activation EC50 [4, 7]: None | IC50 [4, 8]: 10.1 ± 1.26 µM | Zn^2+ Activation EC50 [5, 7]: None | IC50 [5, 8]: 13.3 ± 3.3 µM | Zn^2+ Activation EC50 [6, 7]: None | IC50 [6, 8]: 10.3 ± 0.36 µM

From article PMC6685790 (Nature structural & molecular biology, 2008)
